# ChEMBL document CHEMBL1201862, “PubChem BioAssay data set” (2004)
# Activity calls are given as the source filed them.
# Experiments:
# [1] = molecular target: T1, Heat shock factor protein 1 (Mus musculus, UniProt P38532); test: HSF1 potentiators in luciferase reporter cells, confirmation, cell-based, NIH3T3, luminescence, dose retest (AID 435004); format: functional;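 also: stress induced by proteasome inhibitor MG132 added 30 min after compound; luciferase reporter driven by HSF1 response element in NIH3T3 cells; actives raise luminescence as potentiators of the MG132 stress response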
# T1 sequence (P38532 whole entry): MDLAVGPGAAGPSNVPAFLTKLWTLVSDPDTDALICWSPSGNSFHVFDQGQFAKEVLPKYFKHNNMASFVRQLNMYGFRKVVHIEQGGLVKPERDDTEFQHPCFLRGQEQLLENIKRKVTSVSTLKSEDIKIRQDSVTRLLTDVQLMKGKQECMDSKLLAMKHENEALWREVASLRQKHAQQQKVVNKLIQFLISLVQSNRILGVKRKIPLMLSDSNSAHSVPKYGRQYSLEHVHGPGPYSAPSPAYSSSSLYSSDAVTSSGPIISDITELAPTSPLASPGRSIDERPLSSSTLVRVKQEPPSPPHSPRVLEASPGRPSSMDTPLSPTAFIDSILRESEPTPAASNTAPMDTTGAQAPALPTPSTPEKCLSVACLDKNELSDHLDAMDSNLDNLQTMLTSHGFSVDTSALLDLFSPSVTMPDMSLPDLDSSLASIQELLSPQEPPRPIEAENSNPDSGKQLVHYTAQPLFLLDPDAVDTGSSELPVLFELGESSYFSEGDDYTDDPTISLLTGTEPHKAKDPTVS
# [2] = cytotoxicity in KRAS-transformed pancreatic duct cells, primary screen, cell-based, fluorescence, HTS (AID 431); format: functional; settings: Homo sapiens;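 also: cell line used: HPDE-C7K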
# [3] = cytotoxicity in HPDE-C7 cells, cell-based, fluorescence, HTS (AID 430); format: functional; settings: Homo sapiens
# [4] = microbe, parasite or virus in culture; format: functional; settings: Mycobacterium tuberculosis
# [5] = growth suppression of beta-catenin-knockout colon cells, dose response, cell-based, HCT116, human colon tumor (AID 1045); format: functional;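 also: HCT116 colon tumor cells with beta catenin knocked out; cells exposed to compound for 60 hours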
# Prothrombin = Prothrombin (Homo sapiens, UniProt P00734); test: Thrombin 1536 HTS Dose Response Confirmation. [Related pubchem assays: 1046 (Thrombin 1536 HTS; hits were confirmed in this assay)]; format: functional
# [6] = growth suppression of PTEN-null colon cells, dose response, cell-based, HCT116 PTEN knockout (AID 1047); format: functional;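 also: HCT116 colon tumor cells with PTEN knocked out; cells exposed to compound for 60 hours before readout; potency for loss of cell viability measured by luminescence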
# [7] = control 3'UTR Renilla luciferase suppression, dose response, counter-screen for Shn3 inhibitor project, cell-based, Clone20-Shn3RL, cherry-picked (AID 624133); format: functional
# [8] = Shn3 3'UTR reporter inhibitors, dose response, cell-based, Clone20 osteoblasts, firefly luciferase, cherry-picked (AID 624132); format: functional;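 also: firefly luciferase luminescence from reporter carrying the Shn3 3'UTR in osteoblasts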
# [9] = HepG2 cell cytotoxicity, dose response, cytotoxicity control for Shn3 inhibitor project, CellTiter-Glo, cherry-picked (AID 624134); format: functional, cell-based
# Leucine aminopeptidase = molecular target: T2, Leucine aminopeptidase (Plasmodium falciparum 3D7, UniProt Q8IL11); test: P. falciparum M17LAP inhibitors, primary screen, biochemical, fluorogenic H-Leu-NHMec substrate, 1536-well (AID 1619); format: functional
# T2 sequence (Q8IL11 whole entry): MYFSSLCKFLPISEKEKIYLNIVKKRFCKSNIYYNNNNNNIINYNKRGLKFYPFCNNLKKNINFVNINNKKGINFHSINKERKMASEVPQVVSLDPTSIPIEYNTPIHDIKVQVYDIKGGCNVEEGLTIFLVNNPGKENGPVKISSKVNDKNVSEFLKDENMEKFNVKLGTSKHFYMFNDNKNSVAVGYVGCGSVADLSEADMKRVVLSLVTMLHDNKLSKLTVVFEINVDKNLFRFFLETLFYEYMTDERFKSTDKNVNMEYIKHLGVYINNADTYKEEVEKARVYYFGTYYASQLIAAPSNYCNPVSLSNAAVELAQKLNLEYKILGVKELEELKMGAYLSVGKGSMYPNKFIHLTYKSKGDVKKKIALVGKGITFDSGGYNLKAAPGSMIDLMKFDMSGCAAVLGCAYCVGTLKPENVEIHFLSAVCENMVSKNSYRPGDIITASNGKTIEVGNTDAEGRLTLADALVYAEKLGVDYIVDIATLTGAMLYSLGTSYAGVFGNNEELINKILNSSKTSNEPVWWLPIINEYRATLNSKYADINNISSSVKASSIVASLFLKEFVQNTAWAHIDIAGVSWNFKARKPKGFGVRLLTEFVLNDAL
# Protein RecA = molecular target: T3, Protein RecA (Mycobacterium tuberculosis, UniProt P9WHJ3); test: Fluorescence Cell-Free Homogeneous Dose Retest to Identify Inhibitors of RecA-Intein Splicing Activity. [Related pubchem assays (depositor defined):AID2097, AID2223, AID489010, AID492950]; format: functional
# T3 sequence (P9WHJ3 whole entry): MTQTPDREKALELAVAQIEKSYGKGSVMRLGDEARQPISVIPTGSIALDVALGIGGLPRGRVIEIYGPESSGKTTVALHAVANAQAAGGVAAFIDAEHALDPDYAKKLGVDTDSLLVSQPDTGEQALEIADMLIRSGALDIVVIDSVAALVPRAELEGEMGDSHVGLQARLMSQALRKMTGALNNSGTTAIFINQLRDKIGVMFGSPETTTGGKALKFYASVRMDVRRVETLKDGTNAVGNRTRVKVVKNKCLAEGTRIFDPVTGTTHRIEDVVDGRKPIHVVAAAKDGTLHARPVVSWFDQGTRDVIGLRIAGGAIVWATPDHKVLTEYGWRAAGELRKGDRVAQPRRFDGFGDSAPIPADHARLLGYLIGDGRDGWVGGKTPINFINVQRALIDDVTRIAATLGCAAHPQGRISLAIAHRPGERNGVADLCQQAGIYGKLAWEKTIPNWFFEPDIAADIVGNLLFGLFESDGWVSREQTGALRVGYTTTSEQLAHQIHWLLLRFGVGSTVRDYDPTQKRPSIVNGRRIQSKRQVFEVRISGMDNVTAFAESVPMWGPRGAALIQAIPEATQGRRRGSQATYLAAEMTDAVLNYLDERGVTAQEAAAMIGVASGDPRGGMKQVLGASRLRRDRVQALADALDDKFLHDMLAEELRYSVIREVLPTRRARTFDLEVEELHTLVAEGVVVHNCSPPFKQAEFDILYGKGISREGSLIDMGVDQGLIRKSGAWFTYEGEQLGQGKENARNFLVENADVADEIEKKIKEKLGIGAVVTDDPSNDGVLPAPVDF
# [10] = molecular target: T4, Replicative DNA helicase DnaB (Mycobacterium tuberculosis, UniProt P9WMR3); test: DnaB intein splicing inhibitors, dose response, biochemical, cell-free fluorescence (AID 449749); format: functional
# T4 sequence (P9WMR3 whole entry): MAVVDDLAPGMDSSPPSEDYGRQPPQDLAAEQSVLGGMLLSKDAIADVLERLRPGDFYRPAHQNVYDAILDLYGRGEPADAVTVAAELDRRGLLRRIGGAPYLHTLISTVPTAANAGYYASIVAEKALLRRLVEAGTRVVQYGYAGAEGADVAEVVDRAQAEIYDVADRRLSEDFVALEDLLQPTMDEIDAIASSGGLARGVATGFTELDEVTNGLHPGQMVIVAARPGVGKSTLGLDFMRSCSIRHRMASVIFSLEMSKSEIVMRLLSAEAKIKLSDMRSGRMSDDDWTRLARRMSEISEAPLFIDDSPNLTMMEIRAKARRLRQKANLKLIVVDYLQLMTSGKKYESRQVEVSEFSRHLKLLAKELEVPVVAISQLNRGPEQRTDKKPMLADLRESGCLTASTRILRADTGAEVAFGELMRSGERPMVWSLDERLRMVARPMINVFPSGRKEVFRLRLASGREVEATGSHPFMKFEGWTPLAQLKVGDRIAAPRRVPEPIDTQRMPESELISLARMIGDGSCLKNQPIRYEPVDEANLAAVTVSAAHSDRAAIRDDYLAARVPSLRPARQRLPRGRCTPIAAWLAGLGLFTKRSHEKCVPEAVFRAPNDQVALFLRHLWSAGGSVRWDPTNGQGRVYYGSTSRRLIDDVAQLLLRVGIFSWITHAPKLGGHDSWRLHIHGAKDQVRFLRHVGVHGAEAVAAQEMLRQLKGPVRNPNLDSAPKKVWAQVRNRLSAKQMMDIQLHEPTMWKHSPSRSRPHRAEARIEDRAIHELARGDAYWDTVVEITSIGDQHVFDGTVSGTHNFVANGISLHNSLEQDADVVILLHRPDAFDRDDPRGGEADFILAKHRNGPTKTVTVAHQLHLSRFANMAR
# [11] = molecular target: T5, Microphthalmia-associated transcription factor (Homo sapiens, UniProt O75030); test: TRPM1 promoter luciferase signal decrease, dose response, MITF inhibitor project, cell-based, SK-MEL-5, cherry-picked, set 3 (AID 493073); format: functional
# T5 sequence (O75030 whole entry): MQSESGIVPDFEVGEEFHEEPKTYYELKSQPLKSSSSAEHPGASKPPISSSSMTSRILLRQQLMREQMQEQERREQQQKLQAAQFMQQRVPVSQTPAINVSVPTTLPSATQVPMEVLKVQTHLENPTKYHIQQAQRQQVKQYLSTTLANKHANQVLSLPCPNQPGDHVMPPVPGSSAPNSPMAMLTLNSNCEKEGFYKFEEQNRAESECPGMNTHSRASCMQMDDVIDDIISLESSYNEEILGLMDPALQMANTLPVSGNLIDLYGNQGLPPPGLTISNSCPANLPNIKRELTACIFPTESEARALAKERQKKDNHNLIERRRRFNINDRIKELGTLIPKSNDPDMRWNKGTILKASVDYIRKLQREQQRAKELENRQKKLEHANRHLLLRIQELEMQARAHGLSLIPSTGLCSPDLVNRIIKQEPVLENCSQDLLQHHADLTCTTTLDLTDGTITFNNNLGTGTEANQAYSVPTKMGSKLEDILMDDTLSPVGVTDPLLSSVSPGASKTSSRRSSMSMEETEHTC
# INS1 = test: beta cell apoptosis inhibitors, cytokine rescue, dose response, luminescence, retest (AID 449756); format: functional, cell-based; settings: Rattus norvegicus;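 also: cell death triggered by IL-1 beta plus TNF-alpha plus IFN-gamma mixture; protective hits raise ATP signal compared with cytokine alone wells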
smiles,measurement,setting,value
Cc1cc(C)n(S(=O)(=O)/C=C/c2ccccc2)n1,EC50,[1],12.1 µM (active)
same,EC50,[2],9.65 µM (active)
same,EC50,[3],9.1 µM (active)
C=C(CCC(=O)c1ccccc1)C(=O)c1ccccc1,CC50,[4],17.7 µM (active)
same,EC50,[1],15 µM (active)
same,EC50,[5],8.26 µM (active)
same,IC50,Prothrombin,> 50 µM (not active)
same,EC50,[6],9.9 µM (active)
O=C(Nc1ccc(Cc2ccncc2)cc1)c1ccco1,IC50,Prothrombin,> 50 µM (not active)
O=C(NC1CCCCC1)C1CCN(c2nnnn2-c2ccccc2)CC1,IC50,Prothrombin,> 50 µM (not active)
Cc1cc(NS(=O)(=O)c2ccc(NC(=O)CSc3nnc(-c4ccco4)n3N)cc2)nc(C)n1,IC50,Prothrombin,> 50 µM (not active)
O=C1C=C(NCc2ccc(Cl)c(Cl)c2)CC1,EC50,[2],> 20 µM (not active)
same,EC50,[3],> 20 µM (not active)
c1ccc(-c2cc3nc(NCC4CC4)nc(NCC4CCCCC4)c3s2)cc1,AC50,[7],3.12 µM (active)
same,AC50,[8],2.67 µM (active)
same,AC50,[9],9.15 µM (active)
CCc1nnc(NS(=O)(=O)c2ccc(/N=C/c3c(C)[nH]n(-c4cccc(Cl)c4)c3=O)cc2)s1,IC50,Leucine aminopeptidase,11.3 µM (active)
O=C(N/N=C/c1ccccc1[N+](=O)[O-])c1ccc2[nH]cnc2c1,IC50,Prothrombin,2.34 µM (active)
O=C(N/N=C/c1ccc([N+](=O)[O-])o1)c1ccc(O)cc1 [NIFUROXAZIDE],EC50,Protein RecA,> 380 µM (inactive)
same,AC50,[10],> 380 µM (inactive)
same,AC50,[11],5.2 µM (active)
same,AC50,INS1,5.18 µM (active)
